The values that follow come from PubChem BioAssay (NCI).

The structures appear in SMILES notation.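 All cell lines were grown in 96-well plates and treated with compound for 48 hours. GI50 is the concentration that inhibits growth by half. TGI is the concentration that stops growth completely.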

What all share (experiment): inhibition of tumour cell growth, NCI panel, 48 h
The test system of assay [1] is NCI-H226 lung.
In assay [2] the test system is IGROV1 ovarian.
Assay [3] relates to SNB-75 CNS.
Assay [4] deals with MOLT-4 leukemia.
Assay [5] deals with ACHN renal.
Assay [6] has as its system UO-31 renal.
Assay [7] concerns SF-268 CNS.
The test system of assay [8] is M14 melanoma.
The subject of assay [9] is MALME-3M melanoma.
The subject of assay [10] is LOX IMVI melanoma.

With `NC(N)=N/N=C(/c1ccccc1)c1ccc(Cl)cc1`, the GI50 in [1] was 29.3 µM; in assay [2], 10.6 µM; in assay [3], 6.17 µM; in [4] it was 5.45 µM; in assay [5], 40.6 µM; in assay [6], 17.2 µM. Moreover, the GI50 was 8.44 µM in assay [7], 12 µM in assay [8], 53.3 µM in assay [9] and 18.4 µM in assay [10]. Further, the TGI was more than 100 µM in [1]; 82.5 µM in assay [2]; 70.2 µM in [3]; more than 100 µM in [4]; more than 100 µM in assay [5]; more than 100 µM in assay [6]. Besides, the TGI is more than 100 µM in assay [7], 78.4 µM in assay [8], more than 100 µM in [9] and more than 100 µM in assay [10].
Consider `Cc1ccc(NC(=O)COC(=O)c2cccc3c(=O)c4ccccc4[nH]c23)cc1`, for which the TGI was 96.7 µM in [1]; more than 100 µM in [2]; 94.9 µM in assay [3]; more than 100 µM in assay [4]; more than 100 µM in assay [5]; 42.9 µM in assay [6]. Also, the TGI in assay [7] was more than 100 µM; in [8], more than 100 µM; in assay [9] it was more than 100 µM; in assay [10], 60 µM.
Take `COc1cc(C2CC(c3ccc(Nc4ccnc5cc(Cl)ccc45)cc3)=NN2C=O)cc(OC)c1OC` (stereo not given): the GI50 in assay [1] is 34.5 µM; in [2], 22.3 µM; in [3], 5.19 µM; in assay [4] it was 3.36 µM; in assay [5], 3.24 µM; in [6] it was 4.96 µM. Also, the GI50 in assay [7] is 28 µM; in [8], 3.75 µM; in assay [9], 3.2 µM; in assay [10], 1.89 µM. The TGI in assay [1] was more than 100 µM; in assay [2], more than 100 µM; in assay [3], 32.5 µM; in assay [4], 9.21 µM; in assay [5] it was 10.6 µM; in assay [6] it was 21.3 µM. Besides, the TGI in assay [7] was more than 100 µM; in assay [8] it was 13.9 µM; in assay [9], 8.32 µM; in assay [10], 3.85 µM.
`O=c1[nH]ccc2nc(-c3ccc(CN4CCC(c5nc(-c6ccccn6)n[nH]5)CC4)cc3)c(-c3ccccc3)cc12`: the GI50 is 19 µM in assay [1]; 0.0652 µM in assay [2]; 0.0534 µM in assay [3]; 0.364 µM in [4]; 21.2 µM in assay [5]; 0.975 µM in assay [6]. Also, the GI50 is 25.9 µM in assay [7], 22.2 µM in [8], 2.09 µM in assay [9] and 19.3 µM in [10]. The TGI in assay [1] was more than 100 µM; in [2], more than 100 µM; in assay [3] it was 7.75 µM; in assay [4], 4.67 µM; in assay [5], more than 100 µM; in assay [6], more than 100 µM. The TGI was more than 100 µM in assay [7], more than 100 µM in assay [8], 34.7 µM in assay [9] and more than 94.2 µM in [10].
`CC(=O)OC1(C#N)CC2OC1C1C2N1C(=O)OC(C)(C)C` (stereo not given): the TGI in [1], in assay [2], in [3], in assay [4], in assay [5] and in assay [6] was more than 100 µM in each case. The TGI in [7], in assay [8], in assay [9] and in [10] was more than 100 µM in each case.
Regarding `CC(=O)c1c(O)ccc2c(C)c(C(=O)O)oc12`, the GI50 is 0.0188 µM in assay [1]; more than 100 µM in [2]; more than 100 µM in [3]; more than 100 µM in assay [4]; more than 100 µM in assay [5]; more than 100 µM in assay [6]. Also, the GI50 in assay [7], in [8], in assay [9] and in [10] was more than 100 µM each time. The TGI was 12.2 µM in assay [1]; more than 100 µM in assay [2]; more than 100 µM in [3]; more than 100 µM in assay [4]; more than 100 µM in assay [5]; more than 100 µM in [6]. Further, the TGI in assay [7], in assay [8], in assay [9] and in assay [10] was more than 100 µM throughout.
With `CC(=O)Nc1ccc2c(c1)C(=O)c1cccc(F)c1-2`, the TGI in [1], in assay [2], in assay [3], in [4], in [5] and in assay [6] was more than 100 µM in each case. In addition, the TGI in assay [7], in assay [8], in assay [9] and in [10] was more than 100 µM each time.
As to `O=C1/C(=C/c2ccc(Cl)cc2)CN(Cc2cn(CCNc3ccnc4cc(Cl)ccc34)nn2)C/C1=C\c1ccc(Cl)cc1`, the GI50 was 0.84 µM in assay [1]; 0.276 µM in assay [2]; 1.22 µM in [3]; 0.499 µM in [4]; 0.391 µM in assay [5]; 0.242 µM in assay [6]. Besides, the GI50 in [7] is 0.27 µM; in assay [8], 0.56 µM; in assay [9], 1.53 µM; in assay [10] it was 0.189 µM. Moreover, the TGI is 2.69 µM in [1]; 0.732 µM in assay [2]; 2.63 µM in assay [3]; more than 100 µM in assay [4]; 1.21 µM in [5]; 0.698 µM in assay [6]. Further, the TGI came out at 0.786 µM in assay [7], 2.21 µM in [8], 3.14 µM in assay [9] and 0.35 µM in [10].
